Test results reported in patent US12215104B2, “Anti-biofilm compounds” (UNIVERSITY OF LOUISVILLE RESEARCH FOUNDATION, INC., priority 2018, dated 2025).
Read-outs that look alike come from different tables or passages of the source.

How the values were obtained:
[1] = system: P. gingivalis adherence to S. gordonii; experiment: Inhibition of P. gingivalis adherence to S. gordonii in two-species biofilm model; type: cell-based, P. gingivalis ATCC33277; S. gordonii DL-1
Excerpt: (§1) To assess the functional activity of the click products, compounds 28-57 (Groups I and II) and 90-124 (Group III) were examined for inhibition of P. gingivalis adherence to S. gordonii using an established biofilm model system as described in the Section 4.2.1 [41]. For each compound tested, an IC50 value for adherence inhibition was approximated after quantifying the ratio of green to red fluorescence and these values are shown in Tables 2, 3 and 4. Compounds were classified as strong (IC50<10 μM), moderate (IC50=10-20 μM) or weak (IC50>20 μM) inhibitors of adherence. Twelve compounds were identified as strong inhibitors and an additional ten compounds were classified as moderate inhibitors. […] Compounds 54, 56, 93, 95, 100, 102, 103, and 115 were also tested to determine if they affect the growth of P. gingivalis or S. gordonii. […] The sulfoxide group does impart asymmetry to the molecule; however, the mixture of enantiomers, assuming the peracid oxidation was racemic, was not separated and bioassayed. The Group III active compounds (95-117) all contain the 1,3,5-trisubstituted-2,4,6-triazine modeled after the Katzenellenbogen rendering of an active motif whereby the key leucine residues which mimicked the VXXLL receptor box lie in a triangular arrangement. While the original iteration of the Katzenellenbogen VXXLL mimics were the hydrophobic 3,5-disubstituted-di-N-alkyamino-triazine motifs, we introduced the hydrophobic 2- and 4-(fluorophenyl)amino groups at positions 3 and 5 of the 2,4,6-triazine (See Compounds 102, 111, 115, 122).
(§2) P. gingivalis ATCC33277 was grown in reduced trypticase soy broth (Difco) supplemented with 0.5 percent yeast extract, 1 μg/mL menadione, and 5 μg/mL hemin. Twenty five milliliters of medium were reduced for 24 h under anaerobic conditions by equilibrating in an atmosphere consisting of 10% CO2, 10% H2, and 80% N2. Following equilibration, P. gingivalis was inoculated in the media and grown for 48 h at 37° C. under anaerobic conditions. S. gordonii DL-1 (1) was cultured aerobically without shaking in brain heart infusion (BHI) broth supplemented with 1 percent yeast extract for 16 hours at 37° C. For some compounds that inhibited P. gingivalis adherence to S. gordonii, we determined their affect the planktonic growth of P. gingivalis and S. gordonii. Broth cultures were grown as described above and compared to cultures grown in the absence of the compound. Cell density of each culture was determined by measuring the optical density at 600 nm (O.D.600 nm) after 24 h of growth. The percent growth inhibition/stimulation was calculated using the following equation: [(O.D.600 nm of the control/O.D.600 nm of the culture grown in the presence of compound)−1]×100.
Two species biofilms were formed essentially as previously described. To prepare bacterial cells for biofilm culture, 10 ml of an overnight S. gordonii culture was centrifuged at 5600 rpm for 5 min and the cell pellet was suspended in 1 mL sterile PBS. Subsequently, 20 μL of 5 mg/ml hexidium iodide (Molecular Probes) was added to the cell suspension and incubated for 15 min with gentle shaking at room temperature in the dark. The labeled cells were centrifuged as described above, washed with phosphate buffered saline (10 mM Na2HPO4, […], […], and 2.7 mM KCl, pH 7.2; [PBS]) and the cell pellet was suspended in PBS at a final O.D.600 nm of 0.8. Similarly, 10 mL of a 48 h culture of P. gingivalis was centrifuged at 5600 rpm for 15 min, the cell pellet was suspended in 1 mL PBS and 20 μl of 5(6)-carboxyfluorescein N-hydroxysuccinimide ester (4 mg/ml, Molecular Probes, Inc.) was added. After incubation for 30 min with gentle shaking at room temperature in the dark, the suspension was centrifuged and washed as described above and suspended in PBS at a final O.D.600 nm of 0.4. […]

S. gordonii = experiment: Effect on planktonic growth of S. gordonii; type: cell-based, S. gordonii DL-1; conditions: incubated overnight in the presence of 40 μM compound
Excerpt: as §1, §2

P. gingivalis = experiment: Effect on planktonic growth of P. gingivalis; type: cell-based, P. gingivalis ATCC33277; conditions: incubated overnight in the presence of 40 μM compound
Excerpt: as §1, §2

[2] = system: pre-existing 3-species biofilm; experiment: Disruption of a pre-existing 3-species biofilm in vitro; type: cell-based; conditions: 20 μM
gingival keratinocytes = experiment: Induction of apoptosis in gingival keratinocytes; type: cell-based
[3] = read-out: IC50 for inhibition of adherence of P. gingivalis to S. gordonii
[4] = Table 3, Group II click products, concentration reducing green to red fluorescence ratio by 50%, approximated
[5] = Table 2, Group I triazoles, concentration reducing ratio of green (P. gingivalis) to red (S. gordonii) fluorescence by 50%, approximated

CCN(CC)c1nc(-c2cn(-c3ccc(-c4nc(-c5ccc(F)cc5)c(-c5ccc(F)cc5)o4)cc3)nn2)nc(N(CC)CC)n1 [Compound 93]
IC50 ([1]; Group III): 9.4 µM | effect on growth of planktonic cultures of S. gordonii (S. gordonii): No effect on growth | effect on growth of planktonic cultures of P. gingivalis (P. gingivalis): No effect on growth

Fc1ccc(-c2nc(-c3ccc(-n4cc(-c5nc(Nc6ccccc6F)nc(Nc6ccccc6F)n5)nn4)cc3)oc2-c2ccc(F)cc2)cc1 [Compound 103]
IC50 ([1]; Group III): 12.3 µM | effect on growth of planktonic cultures of S. gordonii (S. gordonii): No effect on growth | effect on growth of planktonic cultures of P. gingivalis (P. gingivalis): No effect on growth

CCN(CC)c1nc(-c2cn(-c3ccc(-c4nc(-c5ccc(Cl)cc5)c(-c5ccc(Cl)cc5)o4)cc3)nn2)nc(N(CC)CC)n1 [Compound 95]
IC50 ([1]; Group III): 3.7 µM | IC50 [1, 3]: 2.3 to 5.3 µM | disruption of pre-existing 3-species biofilm ([2]; time treated 1 h): 16.47 | disruption of pre-existing 3-species biofilm ([2]; time treated 2 h): 52.84 | disruption of pre-existing 3-species biofilm ([2]; time treated 3 h): 81 | effect on growth of planktonic cultures of S. gordonii (S. gordonii): No effect on growth | effect on growth of planktonic cultures of P. gingivalis (P. gingivalis): No effect on growth | early apoptosis (gingival keratinocytes; 5 μM, gingival keratinocytes): 5.02 | late apoptosis (gingival keratinocytes; 5 μM, gingival keratinocytes): 4.27 | live cells (gingival keratinocytes; 5 μM, gingival keratinocytes): 88.50 | early apoptosis (gingival keratinocytes; 20 μM, gingival keratinocytes): 4.89 | late apoptosis (gingival keratinocytes; 20 μM, gingival keratinocytes): 4.26 | live cells (gingival keratinocytes; 20 μM, gingival keratinocytes): 88.35 | early apoptosis (gingival keratinocytes; 40 μM, gingival keratinocytes): 3.80 | late apoptosis (gingival keratinocytes; 40 μM, gingival keratinocytes): 2.83 | live cells (gingival keratinocytes; 40 μM, gingival keratinocytes): 91.75

OO [Compound H2O2, H2O2, reference compound]
early apoptosis (gingival keratinocytes; 4 mM 1 h, positive control): 35.60 | late apoptosis (gingival keratinocytes; 4 mM 1 h, positive control): 41.50 | live cells (gingival keratinocytes; 4 mM 1 h, positive control): 11.30

Fc1ccc(Nc2nc(Nc3ccc(F)cc3)nc(-c3cn(-c4ccc(-c5nc(-c6ccc(F)cc6)c(-c6ccc(F)cc6)o5)cc4)nn3)n2)cc1 [Compound 115]
IC50 ([1]; Group III): 2.3 µM | IC50 [1, 3]: 2.3 to 5.3 µM | disruption of pre-existing 3-species biofilm ([2]; time treated 1 h): 15.26 | disruption of pre-existing 3-species biofilm ([2]; time treated 2 h): 45.62 | disruption of pre-existing 3-species biofilm ([2]; time treated 3 h): 76.06 | effect on growth of planktonic cultures of S. gordonii (S. gordonii): No effect on growth | effect on growth of planktonic cultures of P. gingivalis (P. gingivalis): No effect on growth | early apoptosis (gingival keratinocytes; 5 μM, gingival keratinocytes): 3.89 | late apoptosis (gingival keratinocytes; 5 μM, gingival keratinocytes): 4.21 | live cells (gingival keratinocytes; 5 μM, gingival keratinocytes): 87.85 | early apoptosis (gingival keratinocytes; 10 μM, gingival keratinocytes): 4.07 | late apoptosis (gingival keratinocytes; 10 μM, gingival keratinocytes): 2.47 | live cells (gingival keratinocytes; 10 μM, gingival keratinocytes): 91.25 | early apoptosis (gingival keratinocytes; 20 μM, gingival keratinocytes): 4.06 | late apoptosis (gingival keratinocytes; 20 μM, gingival keratinocytes): 2.80 | live cells (gingival keratinocytes; 20 μM, gingival keratinocytes): 91.20

COc1ccccc1-c1cn(-c2ccc(S(=O)(=O)Cc3nc(-c4ccc(F)cc4)c(-c4ccc(F)cc4)o3)cc2)nn1 [Compound 54]
IC50 [1, 4]: 21.2 µM | effect on growth of planktonic cultures of S. gordonii (S. gordonii): No effect on growth | effect on growth of planktonic cultures of P. gingivalis (P. gingivalis): No effect on growth

Fc1ccccc1Nc1nc(Nc2ccccc2F)nc(-c2cn(-c3cccc(-c4nc(-c5ccccc5)c(-c5ccccc5)o4)c3)nn2)n1 [Compound 100]
effect on growth of planktonic cultures of S. gordonii (S. gordonii): No effect on growth | effect on growth of planktonic cultures of P. gingivalis (P. gingivalis): No effect on growth

O=S(=O)(Cc1nc(-c2ccc(Cl)cc2)c(-c2ccc(Cl)cc2)o1)c1ccc(-n2cc(-c3ccc(F)cc3)nn2)cc1 [Compound 56]
IC50 [1, 4]: 6.3 µM | effect on growth of planktonic cultures of S. gordonii (S. gordonii): No effect on growth | effect on growth of planktonic cultures of P. gingivalis (P. gingivalis): No effect on growth

Fc1ccc(-c2nc(-c3cccc(-n4cc(-c5nc(Nc6ccccc6F)nc(Nc6ccccc6F)n5)nn4)c3)oc2-c2ccc(F)cc2)cc1 [Compound 102]
IC50 ([1]; Group III): 5 µM | effect on growth of planktonic cultures of S. gordonii (S. gordonii): No effect on growth | effect on growth of planktonic cultures of P. gingivalis (P. gingivalis): No effect on growth

Fc1ccc(Nc2nc(Nc3ccc(F)cc3)nc(-c3cn(-c4ccccc4-c4nc(-c5ccco5)c(-c5ccco5)o4)nn3)n2)cc1 [Compound 122]
IC50 ([1]; Group III): 2.4 µM | disruption of pre-existing 3-species biofilm ([2]; time treated 1 h): 0 | disruption of pre-existing 3-species biofilm ([2]; time treated 2 h): 25.71 | disruption of pre-existing 3-species biofilm ([2]; time treated 3 h): 68.82 | early apoptosis (gingival keratinocytes; 5 μM, gingival keratinocytes): 4.50 | late apoptosis (gingival keratinocytes; 5 μM, gingival keratinocytes): 3.95 | live cells (gingival keratinocytes; 5 μM, gingival keratinocytes): 88.30 | early apoptosis (gingival keratinocytes; 20 μM, gingival keratinocytes): 5.93 | late apoptosis (gingival keratinocytes; 20 μM, gingival keratinocytes): 2.92 | live cells (gingival keratinocytes; 20 μM, gingival keratinocytes): 88.80 | early apoptosis (gingival keratinocytes; 60 μM, gingival keratinocytes): 7.54 | late apoptosis (gingival keratinocytes; 60 μM, gingival keratinocytes): 4.59 | live cells (gingival keratinocytes; 60 μM, gingival keratinocytes): 83.65

COc1ccc(-c2nc(-c3ccc(-n4cc(-c5nc(Nc6ccc(F)cc6)nc(Nc6ccc(F)cc6)n5)nn4)cc3)oc2-c2ccc(OC)cc2)cc1 [Compound 121]
IC50 ([1]; Group III): > 60 µM

Fc1ccc(Nc2nc(Nc3ccc(F)cc3)nc(-c3cn(-c4cccc(-c5nc(-c6ccccc6)c(-c6ccccc6)o5)c4)nn3)n2)cc1 [Compound 111]
IC50 ([1]; Group III): 4.3 µM | IC50 [1, 3]: 2.3 to 5.3 µM | disruption of pre-existing 3-species biofilm ([2]; time treated 1 h): 0.62 | disruption of pre-existing 3-species biofilm ([2]; time treated 2 h): 7.33 | disruption of pre-existing 3-species biofilm ([2]; time treated 3 h): 56.63 | early apoptosis (gingival keratinocytes; 5 μM, gingival keratinocytes): 4.96 | late apoptosis (gingival keratinocytes; 5 μM, gingival keratinocytes): 2.36 | live cells (gingival keratinocytes; 5 μM, gingival keratinocytes): 89.25 | early apoptosis (gingival keratinocytes; 20 μM, gingival keratinocytes): 5.06 | late apoptosis (gingival keratinocytes; 20 μM, gingival keratinocytes): 3.39 | live cells (gingival keratinocytes; 20 μM, gingival keratinocytes): 87.95 | early apoptosis (gingival keratinocytes; 60 μM, gingival keratinocytes): 5.60 | late apoptosis (gingival keratinocytes; 60 μM, gingival keratinocytes): 4.38 | live cells (gingival keratinocytes; 60 μM, gingival keratinocytes): 84.40

O=S(=O)(Cc1nc(-c2ccccc2)c(-c2ccccc2)o1)c1ccc(-n2cc(-c3cccnc3)nn2)cc1 [Compound 37]
IC50 [1, 5]: > 60 µM

Fc1ccc(Nc2nc(Nc3ccc(F)cc3)nc(-c3cn(-c4cccc(-c5nc(-c6ccco6)c(-c6ccco6)o5)c4)nn3)n2)cc1 [Compound 123]
IC50 ([1]; Group III): 8 µM

O=S(=O)(Cc1nc(-c2ccccc2)c(-c2ccccc2)o1)c1ccc(-n2cc(-c3cc(C(F)(F)F)cc(C(F)(F)F)c3)nn2)cc1 [Compound 45]
IC50 [1, 5]: 38.5 µM

COc1ccccc1-c1cn(-c2ccc(S(=O)(=O)Cc3nc(-c4ccccc4)c(-c4ccccc4)o3)cc2)nn1 [Compound 40]
IC50 [1, 5]: 13.1 µM

Fc1ccc(Nc2nc(Nc3ccc(F)cc3)nc(-c3cn(-c4ccc(-c5nc(-c6ccccc6)c(-c6ccccc6)o5)cc4)nn3)n2)cc1 [Compound 112]
IC50 ([1]; Group III): > 60 µM

COc1ccccc1-c1cn(-c2ccc([S+]([O-])Cc3nc(-c4ccc(F)cc4)c(-c4ccc(F)cc4)o3)cc2)nn1 (stereo not shown) [Compound 48]
IC50 [1, 4]: 7.2 µM

O=S(=O)(Cc1nc(-c2ccccc2)c(-c2ccccc2)o1)c1ccc(-n2cc(-c3ccc(Oc4ccccc4)cc3)nn2)cc1 [Compound 44]
IC50 [1, 5]: 16.5 µM

COc1ccc(-c2nc(-c3ccc(-n4cc(-c5nc(Nc6ccccc6F)nc(Nc6ccccc6F)n5)nn4)cc3)oc2-c2ccc(OC)cc2)cc1 [Compound 107]
IC50 ([1]; Group III): 40 µM
